Source: patent US5656449A, “Neutral unsymmetrical cyanine dyes” (Molecular Probes, Inc., priority 1995, dated 1997)
Counter-ions that a name gives are not always drawn.

What was measured:
Saccharomyces cerevisiae = experiment: Viability determination of cultured yeast; type: cell-based; conditions: 1 μM dye, 15 minutes, 490 nm-excited
Procedure: A culture of Saccharomyces cerevisiae is grown in 75 mL of yeast extract-peptone-dextrose (YPD) broth for 2 weeks at 30° C., shaking at 200 rpm in a capped 250 mL Erlenmeyer flask. A 2 mL sample is taken aseptically each day. One mL of this sample is serially diluted in sterile 2% glucose solution and 0.1 mL plated on YPD agar in standard r 100 mm petri dishes. Yeast numbers in the dilution samples having visible turbidity are quantified using a Petroff-Hauser counting chamber. The other 1 mL of the sample is centrifuged in a microcentrifuge at 5,000 rpm for 5 minutes, and resuspended in 100 μL of 1 μM Dye 509 in 2% sterile dextrose solution. After incubation for 15 minutes with the dye, the sample is diluted to 3 mL and the 490 nm-excited […] fluorescence is measured relative to a series of standard fluorescein solutions spanning a 10,000-fold range in fluorescence.

[1] = system: Lambda DNA/Hind III fragments; experiment: Staining of nucleic acids in electrophoresis gels; conditions: for detection limit in DNA gel: 1% agarose/TBE minigel, 1 μM dye in 1XTBE, 30 minutes
Procedure: Two separate 1% agarose/TBE (89 mM tris-borate, 2 mM EDTA) minigels are loaded with Lambda DNA/Hind III fragments in a 3-fold serial dilution series of 1 μg, 333 ng, 111 ng, 37.0 ng, 12.4 ng 4.1 ng, 1.4ng. 0.5 ng, 0.2 ng, and 0.05 ng per lane. After the gels are subjected to electrophoresis, the gels are stained with either Dye 510 or Dye 798, as a 1 μM solution in 1XTBE for 30 minutes.
After staining, each gel is illuminated at 254 nm using an epi-illuminator.Gels are photographed with POLAROID 667 black and white print film, Dye 798 stains the gel with a detection limit of 350 pg/band, while Dye 510 stains the gel with a detection limit of 180 pg/band.

[2] = system: rat basophilic leukemia (RBL) cells; experiment: Rate of dye uptake in live cells; type: cell-based; conditions: 1 μM-scale dye (3 μL of 1 mM in 3 mL), excited at 490 nm, emission 520 nm; ±~2 sec
Procedure: Dye uptake data were acquired using rat basophilic leukemia (RBL) cells. A suspension of RBL cells at a concentration of 1×10^6 cells/mL is prepared in room-temperature HEPES-buffered Tyrode's buffer containing 0.1% bovine serum albumin. Three μL of a 1 mM dye solution (in DMSO) is added at T=0 to an acrylic, 1 cm pathlength fluorescence cuvette containing 3 mL of the previously prepared RBL cell suspension. The suspension is then stirred continuously with a Teflon-coated magnetic stir bar. The samples are excited at 490 nm, and the fluorescence emission of the suspension at 520 nm is measured at 200 msec intervals for at least 5 minutes. The T1/2 value represents the time, in seconds, required for the fluorescence of the suspension to reach an intensity half-way between basal fluorescence level and peak fluorescence (±~2 sec).

NIH 3T3 fibroblasts = experiment: Discrimination of plasma membrane-compromised fibroblasts; type: cell-based; conditions: 0.1 or 1.0 μM dye, 5 minutes
Procedure: NIH 3T3 fibroblasts are grown to 75% confluency on 18 mm^2 glass coverslips under standard tissue culture conditions. Coverslips of 3T3 cells are exposed to 0.0001% to 0.1% saponin in HEPES-buffered complete saline solution (HBSS) for 10 minutes at room temperature and subsequently rinsed into HBSS containing 0.1 or 1.0 μM Dye 4100. After incubation for 5 minutes, coverslips are washed with HBSS and mounted on glass microscope slides using glass coverslips as spacers to avoid crushing the cells. The cell fluorescence is observed in the epi-fluorescence microscope using a 40X 0.85 NA objective lens and a standard rhodamine long-pass filter set (546 nm excitation/580 nm emission).

cells = conditions: background art; cited from earlier work
[3] = illumination at 254 nm, 1 μM dye

Compound: CCN1C(=Cc2cc(Sc3ccccc3)nc3ccccc23)Sc2ccccc21 [Dye 509]
- fluorescence at 520 nm with increasing proportion of dead cells (Saccharomyces cerevisiae): increase in fluorescence at 520 nm

Compound: CCN(CC)c1cc(C=C2Sc3ccccc3N2CC)c2ccccc2n1 [Dye 510]
- detection limit in DNA gel ([1]; illumination at 254 nm): 180 pg/band
- fluorescence colour of stained DNA-containing bands [1, 3]: blue-green fluorescence

Compound: Cc1cc(C=C2Sc3ccccc3N2C)nc2ccccc12 [Dye 523-1]
- T1/2 for cell loading [2]: 41 s

Compound: Cc1cc(C=C2Sc3ccccc3N2C)c2ccccc2n1 [Dye 523-2]
- T1/2 for cell loading [2]: 1 s

Compound: CN1C(=Cc2ccnc3ccccc23)Sc2ccccc21 [Dye 798, 4-(2,3-dihydro-3-methyl-(benzo-1,3-thiazol-2-yl)-methylidine)-quinolinium tosylate]
- detection limit in DNA gel ([1]; illumination at 254 nm): 350 pg/band
- background staining of gel [1, 3]: no observable background staining
- fluorescence colour of stained DNA-containing bands [1, 3]: blue-green fluorescence
- T1/2 for cell loading [2]: 3 s

Compound: CN1C(=Cc2ccnc3ccccc23)Oc2ccccc21 [Dye 799]
- T1/2 for cell loading [2]: 2 s

Compound: CCN1C(=Cc2ccnc3ccccc23)Sc2ccccc21 [Dye 1266]
- T1/2 for cell loading [2]: 2 s

Compound: CCCCc1cc(C=C2Sc3ccccc3N2CC)c2ccccc2n1 [Dye 1268]
- T1/2 for cell loading [2]: 3 s

Compound: CCN1C(=Cc2cc(-c3ccccc3)nc3ccccc23)Sc2ccccc21 [Dye 4100]
- staining of cells with compromised plasma membranes (NIH 3T3 fibroblasts; 0.0001% to 0.1% saponin): stain brightly
- staining of untreated 3T3 cells (NIH 3T3 fibroblasts): virtually unstained

Compound: CN1C(=Cc2ccncc2)Sc2ccccc21 [Dye 7101]
- T1/2 for cell loading [2]: 7 s

Compound: CN1C(=Cc2cc[n+](C)c3ccccc23)Sc2ccccc21 [Thiazole Orange, reference compound]
- limit of detection in DNA gel ([1]; illumination of 254 nm, comparison dye): 1-2 ng/band
- staining of cells (cells): readily stains many mammalian cells, yet does not effectively stain some eukaryotic cells
- T1/2 for cell loading [2]: 9 s
